Source: patent US20240109972A1, “ANTIBODY AND TAXANE COMBINATION THERAPY” (Genmab A/S, priority 2020, published 2024)

Assays:
[1] = test system: MC38 mouse colon cancer cells; format: in vivo; conditions: mbsIgG2a-PD-L1×4-1BB 0.5 mg/kg 2QW×3, docetaxel 10 mg/kg QW×3; FIG. 7A
Method: MC38 mouse colon cancer cells were cultured in Dulbecco's Modified Eagle Medium supplemented with 10% heat-inactivated fetal bovine serum at 37° C., 5% CO2. MC38 cells were harvested from a cell culture growing in log-phase and quantified.
MC38 cells (1×10^6 tumor cells in 100 μL PBS) were injected subcutaneously in the right lower flank of female C57BL/6 mice (obtained from Vital River Laboratories Research Models and Services; age 6-8 weeks at start of experiment).
Tumor growth was evaluated three times per week using a caliper. Tumor volumes (mm^3) were calculated from caliper measurements as ([length]×[width]^2)/2, where the length is the longest tumor dimension, and the width is the longest tumor dimension perpendicular to the length.
Mice were randomized into groups (n=10/group) with an average tumor volume of 64 mm^3 prior to treatment. […]
The mice were monitored daily for clinical signs of illness. […]

[2] = GEN1046 in combination with docetaxel in metastatic NSCLC subjects, adverse effects; format: in vivo, human
Method: Docetaxel was administered at a dose of 55 mg/m^2 or 75 mg/m^2 depending on the number of prior Dose Limiting Toxicities observed. The maximum tested dose of docetaxel was be 75 mg/m^2.
Subjects with a histological or cytological diagnosis of non-squamous NSCLC must not have an EGFR-sensitizing mutation and/or ALK translocation/ROS1 rearrangement. EGFR sensitizing mutations are those mutations that are amenable to treatment with an approved TKI. Documentation of EGFR and ALK status should be available per local assessment.

SMILES: CC(=O)O[C@@]12CO[C@@H]1C[C@H](O)[C@@]1(C)C(=O)[C@H](O)C3=C(C)[C@@H](OC(=O)[C@H](O)[C@@H](NC(=O)OC(C)(C)C)c4ccccc4)C[C@@](O)([C@@H](OC(=O)c4ccccc4)[C@H]21)C3(C)C [Docetaxel, reference compound]
- Tumor outgrowth [1]: comparable to the PBS-treated group
- Anemia Grade 1, Docetaxel-related ([2]; 55 mg/m^2 Docetaxel + GEN1046): 1
- Anemia Grade 2, Docetaxel-related ([2]; 55 mg/m^2 Docetaxel + GEN1046): 2
- Anemia Grade 3, Docetaxel-related ([2]; 55 mg/m^2 Docetaxel + GEN1046): 2
- Anemia Grade 4, Docetaxel-related ([2]; 55 mg/m^2 Docetaxel + GEN1046): 0
- Anemia Grade 5, Docetaxel-related ([2]; 55 mg/m^2 Docetaxel + GEN1046): 0
- Blood alkaline phosphatase increase Grade 1, Docetaxel-related ([2]; 55 mg/m^2 Docetaxel + GEN1046): 0
- Blood alkaline phosphatase increase Grade 2, Docetaxel-related ([2]; 55 mg/m^2 Docetaxel + GEN1046): 1
- Blood alkaline phosphatase increase Grade 3, Docetaxel-related ([2]; 55 mg/m^2 Docetaxel + GEN1046): 1
- Blood alkaline phosphatase increase Grade 4, Docetaxel-related ([2]; 55 mg/m^2 Docetaxel + GEN1046): 0
- Blood alkaline phosphatase increase Grade 5, Docetaxel-related ([2]; 55 mg/m^2 Docetaxel + GEN1046): 0
- Dysgeusia Grade 1, Docetaxel-related ([2]; 55 mg/m^2 Docetaxel + GEN1046): 0
- Dysgeusia Grade 2, Docetaxel-related ([2]; 55 mg/m^2 Docetaxel + GEN1046): 1
- Dysgeusia Grade 3, Docetaxel-related ([2]; 55 mg/m^2 Docetaxel + GEN1046): 0
- Dysgeusia Grade 4, Docetaxel-related ([2]; 55 mg/m^2 Docetaxel + GEN1046): 0
- Dysgeusia Grade 5, Docetaxel-related ([2]; 55 mg/m^2 Docetaxel + GEN1046): 0
- Fatigue Grade 1, Docetaxel-related ([2]; 55 mg/m^2 Docetaxel + GEN1046): 0
- Fatigue Grade 2, Docetaxel-related ([2]; 55 mg/m^2 Docetaxel + GEN1046): 2
- Fatigue Grade 3, Docetaxel-related ([2]; 55 mg/m^2 Docetaxel + GEN1046): 1
- Fatigue Grade 4, Docetaxel-related ([2]; 55 mg/m^2 Docetaxel + GEN1046): 0
- Fatigue Grade 5, Docetaxel-related ([2]; 55 mg/m^2 Docetaxel + GEN1046): 0
- Febrile neutropenia Grade 1, Docetaxel-related ([2]; 55 mg/m^2 Docetaxel + GEN1046): 0
- Febrile neutropenia Grade 2, Docetaxel-related ([2]; 55 mg/m^2 Docetaxel + GEN1046): 0
- Febrile neutropenia Grade 3, Docetaxel-related ([2]; 55 mg/m^2 Docetaxel + GEN1046): 1
- Febrile neutropenia Grade 4, Docetaxel-related ([2]; 55 mg/m^2 Docetaxel + GEN1046): 0
- Febrile neutropenia Grade 5, Docetaxel-related ([2]; 55 mg/m^2 Docetaxel + GEN1046): 0
- Hypokalemia Grade 1, Docetaxel-related ([2]; 55 mg/m^2 Docetaxel + GEN1046): 0
- Hypokalemia Grade 2, Docetaxel-related ([2]; 55 mg/m^2 Docetaxel + GEN1046): 1
- Hypokalemia Grade 3, Docetaxel-related ([2]; 55 mg/m^2 Docetaxel + GEN1046): 0
- Hypokalemia Grade 4, Docetaxel-related ([2]; 55 mg/m^2 Docetaxel + GEN1046): 0
- Hypokalemia Grade 5, Docetaxel-related ([2]; 55 mg/m^2 Docetaxel + GEN1046): 0
- Hypomagnesaemia Grade 1, Docetaxel-related ([2]; 55 mg/m^2 Docetaxel + GEN1046): 1
- Hypomagnesaemia Grade 2, Docetaxel-related ([2]; 55 mg/m^2 Docetaxel + GEN1046): 0
- Hypomagnesaemia Grade 3, Docetaxel-related ([2]; 55 mg/m^2 Docetaxel + GEN1046): 0
- Hypomagnesaemia Grade 4, Docetaxel-related ([2]; 55 mg/m^2 Docetaxel + GEN1046): 0
- Hypomagnesaemia Grade 5, Docetaxel-related ([2]; 55 mg/m^2 Docetaxel + GEN1046): 0
- Hyponatremia Grade 1, Docetaxel-related ([2]; 55 mg/m^2 Docetaxel + GEN1046): 1
- Hyponatremia Grade 2, Docetaxel-related ([2]; 55 mg/m^2 Docetaxel + GEN1046): 0
- Hyponatremia Grade 3, Docetaxel-related ([2]; 55 mg/m^2 Docetaxel + GEN1046): 0
- Hyponatremia Grade 4, Docetaxel-related ([2]; 55 mg/m^2 Docetaxel + GEN1046): 0
- Hyponatremia Grade 5, Docetaxel-related ([2]; 55 mg/m^2 Docetaxel + GEN1046): 0
- Infusion site extravasation Grade 1, Docetaxel-related ([2]; 55 mg/m^2 Docetaxel + GEN1046): 1
- Infusion site extravasation Grade 2, Docetaxel-related ([2]; 55 mg/m^2 Docetaxel + GEN1046): 0
- Infusion site extravasation Grade 3, Docetaxel-related ([2]; 55 mg/m^2 Docetaxel + GEN1046): 0
- Infusion site extravasation Grade 4, Docetaxel-related ([2]; 55 mg/m^2 Docetaxel + GEN1046): 0
- Infusion site extravasation Grade 5, Docetaxel-related ([2]; 55 mg/m^2 Docetaxel + GEN1046): 0
- Nausea Grade 1, Docetaxel-related ([2]; 55 mg/m^2 Docetaxel + GEN1046): 1
- Nausea Grade 2, Docetaxel-related ([2]; 55 mg/m^2 Docetaxel + GEN1046): 0
- Nausea Grade 3, Docetaxel-related ([2]; 55 mg/m^2 Docetaxel + GEN1046): 0
- Nausea Grade 4, Docetaxel-related ([2]; 55 mg/m^2 Docetaxel + GEN1046): 0
- Nausea Grade 5, Docetaxel-related ([2]; 55 mg/m^2 Docetaxel + GEN1046): 0
- Neutrophil count decreased Grade 1, Docetaxel-related ([2]; 55 mg/m^2 Docetaxel + GEN1046): 0
- Neutrophil count decreased Grade 2, Docetaxel-related ([2]; 55 mg/m^2 Docetaxel + GEN1046): 0
- Neutrophil count decreased Grade 3, Docetaxel-related ([2]; 55 mg/m^2 Docetaxel + GEN1046): 0
- Neutrophil count decreased Grade 4, Docetaxel-related ([2]; 55 mg/m^2 Docetaxel + GEN1046): 1
- Neutrophil count decreased Grade 5, Docetaxel-related ([2]; 55 mg/m^2 Docetaxel + GEN1046): 0
- Pyrexia Grade 1, Docetaxel-related ([2]; 55 mg/m^2 Docetaxel + GEN1046): 1
- Pyrexia Grade 2, Docetaxel-related ([2]; 55 mg/m^2 Docetaxel + GEN1046): 1
- Pyrexia Grade 3, Docetaxel-related ([2]; 55 mg/m^2 Docetaxel + GEN1046): 0
- Pyrexia Grade 4, Docetaxel-related ([2]; 55 mg/m^2 Docetaxel + GEN1046): 0
- Pyrexia Grade 5, Docetaxel-related ([2]; 55 mg/m^2 Docetaxel + GEN1046): 0
- Vomiting Grade 1, Docetaxel-related ([2]; 55 mg/m^2 Docetaxel + GEN1046): 0
- Vomiting Grade 2, Docetaxel-related ([2]; 55 mg/m^2 Docetaxel + GEN1046): 2
- Vomiting Grade 3, Docetaxel-related ([2]; 55 mg/m^2 Docetaxel + GEN1046): 0
- Vomiting Grade 4, Docetaxel-related ([2]; 55 mg/m^2 Docetaxel + GEN1046): 0
- Vomiting Grade 5, Docetaxel-related ([2]; 55 mg/m^2 Docetaxel + GEN1046): 0
- White blood cell count decreased Grade 1, Docetaxel-related ([2]; 55 mg/m^2 Docetaxel + GEN1046): 0
- White blood cell count decreased Grade 2, Docetaxel-related ([2]; 55 mg/m^2 Docetaxel + GEN1046): 0
- White blood cell count decreased Grade 3, Docetaxel-related ([2]; 55 mg/m^2 Docetaxel + GEN1046): 0
- White blood cell count decreased Grade 4, Docetaxel-related ([2]; 55 mg/m^2 Docetaxel + GEN1046): 1
- White blood cell count decreased Grade 5, Docetaxel-related ([2]; 55 mg/m^2 Docetaxel + GEN1046): 0
- Anaemia Grade 1, Docetaxel-related ([2]; 75 mg/m^2 Docetaxel + GEN1046): 0
- Anaemia Grade 2, Docetaxel-related ([2]; 75 mg/m^2 Docetaxel + GEN1046): 0
- Anaemia Grade 3, Docetaxel-related ([2]; 75 mg/m^2 Docetaxel + GEN1046): 1
- Anaemia Grade 4, Docetaxel-related ([2]; 75 mg/m^2 Docetaxel + GEN1046): 0
- Anaemia Grade 5, Docetaxel-related ([2]; 75 mg/m^2 Docetaxel + GEN1046): 0
- Diarrhea Grade 1, Docetaxel-related ([2]; 75 mg/m^2 Docetaxel + GEN1046): 1
- Diarrhea Grade 2, Docetaxel-related ([2]; 75 mg/m^2 Docetaxel + GEN1046): 0
- Diarrhea Grade 3, Docetaxel-related ([2]; 75 mg/m^2 Docetaxel + GEN1046): 0
- Diarrhea Grade 4, Docetaxel-related ([2]; 75 mg/m^2 Docetaxel + GEN1046): 0
- Diarrhea Grade 5, Docetaxel-related ([2]; 75 mg/m^2 Docetaxel + GEN1046): 0
- Dyspnea Grade 1, Docetaxel-related ([2]; 75 mg/m^2 Docetaxel + GEN1046): 0
- Dyspnea Grade 2, Docetaxel-related ([2]; 75 mg/m^2 Docetaxel + GEN1046): 0
- Dyspnea Grade 3, Docetaxel-related ([2]; 75 mg/m^2 Docetaxel + GEN1046): 0
- Dyspnea Grade 4, Docetaxel-related ([2]; 75 mg/m^2 Docetaxel + GEN1046): 1
- Dyspnea Grade 5, Docetaxel-related ([2]; 75 mg/m^2 Docetaxel + GEN1046): 0
- Fatigue Grade 1, Docetaxel-related ([2]; 75 mg/m^2 Docetaxel + GEN1046): 1
- Fatigue Grade 2, Docetaxel-related ([2]; 75 mg/m^2 Docetaxel + GEN1046): 2
- Fatigue Grade 3, Docetaxel-related ([2]; 75 mg/m^2 Docetaxel + GEN1046): 0
- Fatigue Grade 4, Docetaxel-related ([2]; 75 mg/m^2 Docetaxel + GEN1046): 0
- Fatigue Grade 5, Docetaxel-related ([2]; 75 mg/m^2 Docetaxel + GEN1046): 0
- Gastrooesophageal reflux disease Grade 1, Docetaxel-related ([2]; 75 mg/m^2 Docetaxel + GEN1046): 0
- Gastrooesophageal reflux disease Grade 2, Docetaxel-related ([2]; 75 mg/m^2 Docetaxel + GEN1046): 1
- Gastrooesophageal reflux disease Grade 3, Docetaxel-related ([2]; 75 mg/m^2 Docetaxel + GEN1046): 0
- Gastrooesophageal reflux disease Grade 4, Docetaxel-related ([2]; 75 mg/m^2 Docetaxel + GEN1046): 0
- Gastrooesophageal reflux disease Grade 5, Docetaxel-related ([2]; 75 mg/m^2 Docetaxel + GEN1046): 0
- Hiccups Grade 1, Docetaxel-related ([2]; 75 mg/m^2 Docetaxel + GEN1046): 0
- Hiccups Grade 2, Docetaxel-related ([2]; 75 mg/m^2 Docetaxel + GEN1046): 1
- Hiccups Grade 3, Docetaxel-related ([2]; 75 mg/m^2 Docetaxel + GEN1046): 0
- Hiccups Grade 4, Docetaxel-related ([2]; 75 mg/m^2 Docetaxel + GEN1046): 0
- Hiccups Grade 5, Docetaxel-related ([2]; 75 mg/m^2 Docetaxel + GEN1046): 0
- Lacrimation increased Grade 1, Docetaxel-related ([2]; 75 mg/m^2 Docetaxel + GEN1046): 1
- Lacrimation increased Grade 2, Docetaxel-related ([2]; 75 mg/m^2 Docetaxel + GEN1046): 0
- Lacrimation increased Grade 3, Docetaxel-related ([2]; 75 mg/m^2 Docetaxel + GEN1046): 0
- Lacrimation increased Grade 4, Docetaxel-related ([2]; 75 mg/m^2 Docetaxel + GEN1046): 0
- Lacrimation increased Grade 5, Docetaxel-related ([2]; 75 mg/m^2 Docetaxel + GEN1046): 0
- Nausea Grade 1, Docetaxel-related ([2]; 75 mg/m^2 Docetaxel + GEN1046): 1
- Nausea Grade 2, Docetaxel-related ([2]; 75 mg/m^2 Docetaxel + GEN1046): 2
- Nausea Grade 3, Docetaxel-related ([2]; 75 mg/m^2 Docetaxel + GEN1046): 0
- Nausea Grade 4, Docetaxel-related ([2]; 75 mg/m^2 Docetaxel + GEN1046): 0
- Nausea Grade 5, Docetaxel-related ([2]; 75 mg/m^2 Docetaxel + GEN1046): 0
- Neutrophil count decreased Grade 1, Docetaxel-related ([2]; 75 mg/m^2 Docetaxel + GEN1046): 0
- Neutrophil count decreased Grade 2, Docetaxel-related ([2]; 75 mg/m^2 Docetaxel + GEN1046): 0
- Neutrophil count decreased Grade 3, Docetaxel-related ([2]; 75 mg/m^2 Docetaxel + GEN1046): 1
- Neutrophil count decreased Grade 4, Docetaxel-related ([2]; 75 mg/m^2 Docetaxel + GEN1046): 1
- Neutrophil count decreased Grade 5, Docetaxel-related ([2]; 75 mg/m^2 Docetaxel + GEN1046): 0
- Not coded: periphery sensory neuropathy Grade 1, Docetaxel-related ([2]; 75 mg/m^2 Docetaxel + GEN1046): 1
- Not coded: periphery sensory neuropathy Grade 2, Docetaxel-related ([2]; 75 mg/m^2 Docetaxel + GEN1046): 0
- Not coded: periphery sensory neuropathy Grade 3, Docetaxel-related ([2]; 75 mg/m^2 Docetaxel + GEN1046): 0
- Not coded: periphery sensory neuropathy Grade 4, Docetaxel-related ([2]; 75 mg/m^2 Docetaxel + GEN1046): 0
- Not coded: periphery sensory neuropathy Grade 5, Docetaxel-related ([2]; 75 mg/m^2 Docetaxel + GEN1046): 0
- Vomiting Grade 1, Docetaxel-related ([2]; 75 mg/m^2 Docetaxel + GEN1046): 1
- Vomiting Grade 2, Docetaxel-related ([2]; 75 mg/m^2 Docetaxel + GEN1046): 0
- Vomiting Grade 3, Docetaxel-related ([2]; 75 mg/m^2 Docetaxel + GEN1046): 0
- Vomiting Grade 4, Docetaxel-related ([2]; 75 mg/m^2 Docetaxel + GEN1046): 0
- Vomiting Grade 5, Docetaxel-related ([2]; 75 mg/m^2 Docetaxel + GEN1046): 0
- Hepatotoxicity ([2]; GEN1046 in combination with Docetaxel): No reported drug-related hepatoxicities
